The subject of this experiment is Enterococcus faecalis BKM B-871. Nature of the experiment: Antibacterial activity, serial dilutions in liquid MH medium. The class given is cell-based. As to conditions: for MIC: MH medium, 20 h, 37° C., 100% growth inhibition; for MBC: no colonies on agarized MH medium. The gist of the method:
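Broth microdilution in Mueller-Hinton medium at 37 °C with stirring, using exponential-phase cultures seeded at 5×10^4 to 1×10^5 cells/mL with twofold serial compound dilutions. Growth inhibition read as A595 after 20 h, corrected for compound absorbance; MIC and MBC determined.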

From patent US9605013B2, “Derivatives of hemin with antibacterial and antiviral activity” (OBSCHESTVO S OGRANICHENNOI OTVETSTVENNOSTIYU …, priority 2011, dated 2017) come the findings set out here.

Take `C=CC1=C(C)c2cc3[n-]c(cc4[n-]c(cc5nc(cc1n2)C(C)=C5C=C)c(C)c4CCC(=O)N[C@@H](CCCNC(=N)N)C(N)=O)c(CCC(=O)N[C@@H](CCCNC(=N)N)C(N)=O)c3C.[Cl-].[Fe+3]` [II, 6,7-bis-(Amide N^α-Arginyl)-Protohemin (IX)]: the MIC – broadly, the least concentration at which growth counts as inhibited – came out at 6.3 µM and the MBC (in general, the lowest tested concentration that kills the bacteria rather than only halting them) was found to be 12.5 µM.
Consider “6,7-bis-[(Diamide N^α-L-Arginyl)-L-glutamyl]-Protohemin (IX)”, for which the MIC amounted to 25 µM and the minimum bactericidal concentration (MBC) came to 50 µM.
